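A five-concentration, 48-hour dose response in 96-well plates underlies each endpoint, interpolated linearly between surrounding concentrations. The concentration for full growth arrest is given as TGI.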
Legend:
Test in all cases: NCI-60 cell line screen, 48 h
TK-10 renal = tested on: TK-10 renal
LOX IMVI melanoma = tested on: LOX IMVI melanoma
HCC-2998 colon = tested on: HCC-2998 colon
COLO 205 colon = tested on: COLO 205 colon
M14 melanoma = tested on: M14 melanoma
OVCAR-5 ovarian = tested on: OVCAR-5 ovarian
RPMI-8226 leukemia = tested on: RPMI-8226 leukemia
SR leukemia = tested on: SR leukemia
EKVX NSCLC = tested on: EKVX NSCLC
A498 renal = tested on: A498 renal
SF-268 CNS = tested on: SF-268 CNS
RXF 393 renal = tested on: RXF 393 renal
NCI-H226 lung = tested on: NCI-H226 lung
UO-31 renal = tested on: UO-31 renal
SW-620 colon = tested on: SW-620 colon
DLD-1 colon = tested on: DLD-1 colon
KM20L2 colon = tested on: KM20L2 colon
HOP-18 NSCLC = tested on: HOP-18 NSCLC
KM12 colon = tested on: KM12 colon
K-562 leukemia = tested on: K-562 leukemia
NCI-H23 lung = tested on: NCI-H23 lung
RXF-631 renal = tested on: RXF-631 renal
CAKI-1 renal = tested on: CAKI-1 renal
SNB-78 CNS = tested on: SNB-78 CNS
SF-295 CNS = tested on: SF-295 CNS
SK-MEL-28 melanoma = tested on: SK-MEL-28 melanoma
IGROV1 ovarian = tested on: IGROV1 ovarian
NCI-H522 lung = tested on: NCI-H522 lung
SNB-75 CNS = tested on: SNB-75 CNS
SNB-19 CNS = tested on: SNB-19 CNS
SK-OV-3 ovarian = tested on: SK-OV-3 ovarian
DMS 273 small cell lung = tested on: DMS 273 small cell lung
ACHN renal = tested on: ACHN renal
NCI-H460 lung = tested on: NCI-H460 lung
UACC-257 melanoma = tested on: UACC-257 melanoma
OVCAR-8 ovarian = tested on: OVCAR-8 ovarian
OVCAR-4 ovarian = tested on: OVCAR-4 ovarian
LXFL 529 NSCLC = tested on: LXFL 529 NSCLC
HCT-116 colon = tested on: HCT-116 colon
MOLT-4 leukemia = tested on: MOLT-4 leukemia
786-0 renal = tested on: 786-0 renal
HT29 colon = tested on: HT29 colon
HL-60(TB) leukemia = tested on: HL-60(TB) leukemia
HOP-92 NSCLC = tested on: HOP-92 NSCLC
UACC-62 melanoma = tested on: UACC-62 melanoma
DMS 114 small cell lung = tested on: DMS 114 small cell lung
OVCAR-3 ovarian = tested on: OVCAR-3 ovarian
U251 CNS = tested on: U251 CNS
SN12C renal = tested on: SN12C renal
HOP-62 NSCLC = tested on: HOP-62 NSCLC
MALME-3M melanoma = tested on: MALME-3M melanoma
CCRF-CEM leukemia = tested on: CCRF-CEM leukemia
SF-539 CNS = tested on: SF-539 CNS
XF 498 CNS = tested on: XF 498 CNS
A549 NSCLC = tested on: A549 NSCLC
M19-MEL melanoma = tested on: M19-MEL melanoma

Nc1nc(-c2ccccc2)cc(-c2ccccc2O)n1
TGI (TK-10 renal): 98.2 µM
TGI (LOX IMVI melanoma): > 100 µM
TGI (HCC-2998 colon): > 100 µM
TGI (COLO 205 colon): > 100 µM
TGI (M14 melanoma): > 100 µM
TGI (OVCAR-5 ovarian): 68.2 µM
TGI (RPMI-8226 leukemia): 75.8 µM
TGI (SR leukemia): > 100 µM
TGI (EKVX NSCLC): > 100 µM
TGI (A498 renal): > 100 µM
TGI (SF-268 CNS): > 100 µM
TGI (RXF 393 renal): 53.9 µM
TGI (NCI-H226 lung): 53.2 µM
TGI (UO-31 renal): 28.7 µM
TGI (SW-620 colon): > 100 µM
TGI (DLD-1 colon): > 100 µM
TGI (KM20L2 colon): > 100 µM
TGI (HOP-18 NSCLC): > 100 µM
TGI (KM12 colon): 79.5 µM
TGI (K-562 leukemia): > 100 µM
TGI (NCI-H23 lung): > 100 µM
TGI (RXF-631 renal): > 100 µM
TGI (CAKI-1 renal): > 100 µM
TGI (SNB-78 CNS): > 100 µM
TGI (SF-295 CNS): > 100 µM
TGI (SK-MEL-28 melanoma): > 100 µM
TGI (IGROV1 ovarian): > 100 µM
TGI (NCI-H522 lung): > 100 µM
TGI (SNB-75 CNS): 82.4 µM
TGI (SNB-19 CNS): > 100 µM
TGI (SK-OV-3 ovarian): > 100 µM
TGI (DMS 273 small cell lung): > 100 µM
TGI (ACHN renal): > 100 µM
TGI (NCI-H460 lung): > 100 µM
TGI (UACC-257 melanoma): > 100 µM
TGI (OVCAR-8 ovarian): > 100 µM
TGI (OVCAR-4 ovarian): > 100 µM
TGI (LXFL 529 NSCLC): > 100 µM
TGI (HCT-116 colon): 49 µM
TGI (MOLT-4 leukemia): 80.2 µM
TGI (786-0 renal): > 100 µM
TGI (HT29 colon): > 100 µM
TGI (HL-60(TB) leukemia): 43.5 µM
TGI (HOP-92 NSCLC): > 100 µM
TGI (UACC-62 melanoma): > 100 µM
TGI (DMS 114 small cell lung): > 100 µM
TGI (OVCAR-3 ovarian): > 100 µM
TGI (U251 CNS): > 100 µM
TGI (SN12C renal): > 100 µM
TGI (HOP-62 NSCLC): 74.9 µM
TGI (MALME-3M melanoma): > 100 µM
TGI (CCRF-CEM leukemia): > 100 µM
TGI (SF-539 CNS): > 100 µM
TGI (XF 498 CNS): > 100 µM
TGI (A549 NSCLC): > 100 µM
TGI (M19-MEL melanoma): > 100 µM
